# Test system: adult human subjects with moderate or severe major depression without psychotic features
# Assay: Randomized double-blind placebo- and active-controlled 6-week study in major depression
# Format: in vivo
# Settings: for MADRS response rate / MADRS remission rate: Week 6; for MADRS response rate: >50% improvement in MADRS total score; for MADRS remission rate: MADRS total score less than 9; for 3 Atypical items of HAM-D 31, mean result / CGI-S score, mean result / MADRS core mood subscale, mean result / MADRS sadness (Items 1 + 2), mean result / MADRS total score (primary), mean result / MADRS total score, mean result: change from baseline at Week 6; for ABCD questionnaire items with statistically significant superiority to placebo: post hoc analyses, of 51 items, U.S. sites
# Description: The primary objective of this study was to determine the efficacy of 2 target doses of test compound (200 and 400 mg/day) in comparison with placebo during 6 weeks of treatment in adult human subjects with moderate or severe major depression without psychotic features. An active comparator (paroxetine) was included to assist in distinguishing a negative study from a failed study. In addition, an exit interview was intended to gather information on unexpected benefits of the test compound in order to refine the clinical development program. […] In addition, positive effects of the test compound on ratings of physical energy/fitness, reduction in sadness or depression and mental energy or motivation.
# This was a randomized, double-blind, parallel-group, active, and placebo-controlled, multicenter study conducted in the U.S. (23 centers) and Canada (4 centers). There were 2 phases: a pretreatment phase (screening/washout and a baseline visit) and a 6-week, double-blind treatment phase. Paroxetine, a positive control, was included to evaluate assay sensitivity. After washout (if needed) of prohibited substances, subjects were randomly assigned (1:1:1:1) to receive the test compound titrated to a target dose of 200 mg/day or 400 mg/day, matching placebo, or a fixed dose (20 mg/day) of paroxetine. Study drug was given twice daily for 6 weeks. Efficacy and safety were assessed weekly during the double-blind phase. Subjects completing the study underwent an Exit Interview (“Your Health and Well-Being”) and completed an Assessment of Benefits of Clinical-trial Drug-treatment (ABCD) questionnaire (U.S. sites only).
# [1] = Per-Protocol (LOCF), TC 200 mg/day
# [2] = Per-Protocol (LOCF), TC 400 mg/day
smiles,measurement,setting,value
"NC(=O)OC[C@H](N)Cc1ccccc1 [test compound, O-carbamoyl-(D)-phenylalaninol]",MADRS response rate,"ITT (LOCF), TC 200 mg/day",36%
same,MADRS response rate,"ITT (LOCF), TC 400 mg/day",41%
same,MADRS remission rate,"ITT (LOCF), TC 200 mg/day",15%
same,MADRS remission rate,"ITT (LOCF), TC 400 mg/day",19%
same,"3 Atypical items of HAM-D 31, mean result","ITT (LOCF), TC 200 mg/day",−0.4
same,"CGI-S score, mean result","ITT (LOCF), TC 200 mg/day",−1.2
same,"MADRS core mood subscale, mean result","ITT (LOCF), TC 200 mg/day",−8.6
same,"MADRS sadness (Items 1 + 2), mean result","ITT (LOCF), TC 200 mg/day",−3.2
same,"MADRS total score (primary), mean result","ITT (LOCF), TC 200 mg/day",−12.1
same,"3 Atypical items of HAM-D 31, mean result","ITT (LOCF), TC 400 mg/day",−0.8
same,"CGI-S score, mean result","ITT (LOCF), TC 400 mg/day",−1.3
same,"MADRS core mood subscale, mean result","ITT (LOCF), TC 400 mg/day",−8.7
same,"MADRS sadness (Items 1 + 2), mean result","ITT (LOCF), TC 400 mg/day",−3.4
same,"MADRS total score (primary), mean result","ITT (LOCF), TC 400 mg/day",−12.4
same,superiority to placebo on the primary endpoint (change from baseline at Week 6 in MADRS total score),"ITT (LOCF), test compound 200 mg and 400 mg, paroxetine 20 mg/day",Neither the 200-mg nor the 400-mg dose of the test compound was statistically significantly superior to placebo
same,MADRS response rate,[1],40%
same,MADRS response rate,[2],50%
same,MADRS remission rate,[1],20%
same,MADRS remission rate,[2],29%
same,"CGI-S score, mean result",[1],−1.5
same,"MADRS total score, mean result",[1],−14.8
same,"CGI-S score, mean result",[2],−1.6
same,"MADRS total score, mean result",[2],−15.0
same,"superiority to placebo on the primary endpoint, men","men, test compound 200 mg",nominally statistically significant superiority to placebo
same,ABCD questionnaire items with statistically significant superiority to placebo,test compound 200 mg,14 items
same,ABCD questionnaire items with statistically significant superiority to placebo,test compound 400 mg,8 items
same,"superiority to placebo on the primary endpoint, women","women, test compound 400 mg",statistically significant superiority to placebo

# Reference: patent US9610274B2, “Methods for treating bipolar disorder” (priority 2010, dated 2017)
